System: SARS-CoV-2 B.1.1.7
Test: microbe, parasite or virus in culture
Type: cell-based
Conditions: Severe acute respiratory syndrome coronavirus 2, Caco-2, pretreated 2 h, 24 h, mean ± SEM

How did the IC50 turn out when `CCC(CC)COC(=O)[C@H](C)N[P@](=O)(OC[C@H]1O[C@@](C#N)(c2ccc3c(N)ncnn23)[C@H](O)[C@@H]1O)Oc1ccccc1` [Remdesivir] was run?
The IC50 was 23 nM.

— publication PMC8761492 (Life Science Alliance, 2022)
